From US20240083861A1, “HSD17B13 INHIBITORS AND USES THEREOF” (FL2022-001, Inc., priority 2020, published 2024) come the findings set out here.

The assay concerns the target T1, Recombinant human HSD17B13 enzyme (Homo sapiens, UniProt Q7Z5P4).
T1 sequence (Q7Z5P4 20-300): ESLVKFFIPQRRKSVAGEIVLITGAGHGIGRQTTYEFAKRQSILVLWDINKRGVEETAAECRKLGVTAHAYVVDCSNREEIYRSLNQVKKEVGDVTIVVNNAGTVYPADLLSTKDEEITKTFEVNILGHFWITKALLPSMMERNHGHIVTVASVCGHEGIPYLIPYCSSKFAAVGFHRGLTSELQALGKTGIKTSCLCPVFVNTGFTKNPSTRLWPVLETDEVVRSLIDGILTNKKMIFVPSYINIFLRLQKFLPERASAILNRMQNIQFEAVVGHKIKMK
Put plainly: HSD17b13 NAD(P)H-Glo biochemical assay. To be noted: 50 uM estradiol, 1 mM NAD+, NAD(P)H-Glo luminescence; read-out: HSD17β13 IC50. In short, it runs like this:
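Luminescent NAD(P)H-Glo read-out, taken after 1 hour at RT, measured cofactor reduction. Substrate and cofactor were estradiol at 50 uM and NAD+ at 1 mM final, reacted with the recombinant human enzyme for 3 hours at 37° C in 20 mM Tris pH7.4, 0.002% Tween-20, 0.02% BSA. Compound was pre-incubated with enzyme for 20 minutes at RT.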
On to `COCCn1nc(-c2cc(C(F)(F)F)c(F)c(O)c2F)c2ccc(N3CCOCC34CC4)nc21` [Compound 9.72, 2,6-Difluoro-3-(1-(2-methoxyethyl)-6-(7-oxa-4-azaspiro[2.5]octan-4-yl)-1H-pyrazolo[3,4-b]pyridin-3-yl)-5-(trifluoromethyl)phenol], for which the IC50 (in general, the concentration that gives 50% inhibition) is below 100 nM.
Consider `COCCn1nc(-c2cc(C(F)(F)F)c(F)c(O)c2F)c2cnc(N3CCOCC34CC4)cc21` [Compound 9.73, 2,6-Difluoro-3-(1-(2-methoxyethyl)-6-(7-oxa-4-azaspiro[2.5]octan-4-yl)-1H-pyrazolo[4,3-c]pyridin-3-yl)-5-(trifluoromethyl)phenol], for which the IC50 is below 100 nM.
For the compound `Cn1nc(-c2cc(C(F)(F)F)c(F)c(O)c2F)c2cnc(N3CCN(S(C)(=O)=O)CC34CC4)cc21` [Compound 9.74, 2,6-Difluoro-3-(1-methyl-6-(7-(methylsulfonyl)-4,7-diazaspiro[2.5]octan-4-yl)-1H-pyrazolo[4,3-c]pyridin-3-yl)-5-(trifluoromethyl)phenol], the IC50 is below 100 nM.
For `COC1CCN(c2cc3c(cn2)c(-c2cc(C(F)(F)F)c(F)c(O)c2F)nn3C)C2(CCC2)C1` (stereo not drawn) [Compound 9.75, 2,6-Difluoro-3-(6-(8-methoxy-5-azaspiro[3.5]nonan-5-yl)-1-methyl-1H-pyrazolo[4,3-c]pyridin-3-yl)-5-(trifluoromethyl)phenol], the IC50 is below 100 nM.
For `Cn1nc(-c2cc(C(F)(F)F)c(F)c(O)c2F)c2cnc(N3CCOCC3C3CCOCC3)cc21` (stereo not drawn) [Compound 9.76, 2,6-Difluoro-3-(1-methyl-6-(3-(tetrahydro-2H-pyran-4-yl)morpholino)-1H-pyrazolo[4,3-c]pyridin-3-yl)-5-(trifluoromethyl)phenol], the IC50 is below 100 nM.
Next, `COCC1CN(c2cc3c(cn2)c(-c2cc(C(F)(F)F)c(F)c(O)c2F)nn3C)CCO1` (stereo not drawn) [Compound 9.77, 2,6-Difluoro-3-(6-(2-(methoxymethyl)morpholino)-1-methyl-1H-pyrazolo[4,3-c]pyridin-3-yl)-5-(trifluoromethyl)phenol]: below 100 nM; `Cn1nc(-c2cc(C(F)(F)F)c(F)c(O)c2F)c2cnc(N3CCOC4(CCC4)C3)cc21` [Compound 9.78, 2,6-Difluoro-3-(1-methyl-6-(5-oxa-8-azaspiro[3.5]nonan-8-yl)-1H-pyrazolo[4,3-c]pyridin-3-yl)-5-(trifluoromethyl)phenol]: below 100 nM; `Cn1nc(-c2cc(C(F)(F)F)c(F)c(O)c2F)c2cnc(N3CCN(C(=O)O)C(=O)C3)cc21` [Compound 9.79, 4-(3-(2,4-Difluoro-3-hydroxy-5-(trifluoromethyl)phenyl)-1-methyl-1H-pyrazolo[4,3-c]pyridin-6-yl)-2-oxopiperazine-1-carboxylic acid]: 1000 to 30000 nM.
Consider `CNC(=O)C1CN(c2cc3c(cn2)c(-c2cc(C(F)(F)F)c(F)c(O)c2F)nn3C)CCO1` (stereo not drawn) [Compound 9.80, 4-(3-(2,4-Difluoro-3-hydroxy-5-(trifluoromethyl)phenyl)-1-methyl-1H-pyrazolo[4,3-c]pyridin-6-yl)-N-methylmorpholine-2-carboxamide], for which the IC50 is below 100 nM.
For `Cn1nc(-c2cc(C(F)(F)F)c(F)c(O)c2F)c2cc(F)c(N3CCOCC34CC4)nc21` [Compound 9.81, 2,6-Difluoro-3-(5-fluoro-1-methyl-6-(7-oxa-4-azaspiro[2.5]octan-4-yl)-1H-pyrazolo[3,4-b]pyridin-3-yl)-5-(trifluoromethyl)phenol], the half-maximal inhibitory concentration (IC50) is below 100 nM.
Next, `Cn1nc(-c2cc(C(F)(F)F)c(F)c(O)c2F)c2cnc(N3CCOC4(CCOCC4)C3)cc21` [Compound 9.82, 2,6-Difluoro-3-(1-methyl-6-(1,9-dioxa-4-azaspiro [5.5]undecan-4-yl)-1H-pyrazolo[4,3-c]pyridin-3-yl)-5-(trifluoromethyl)phenol]: below 100 nM; `COC1CCN(c2cc3c(cn2)c(-c2cc(C(F)(F)F)c(F)c(O)c2F)nn3C)C2(CC2)C1` (stereo not drawn) [Compound 9.83, 2,6-Difluoro-3-(6-(7-methoxy-4-azaspiro[2.5]octan-4-yl)-1-methyl-1H-pyrazolo[4,3-c]pyridin-3-yl)-5-(trifluoromethyl)phenol]: below 100 nM.
As to `Cn1nc(-c2cc(C(F)(F)F)c(F)c(O)c2F)c2cnc(N3CCOCC34CCCC4)cc21` [Compound 9.84, 2,6-Difluoro-3-(1-methyl-6-(9-oxa-6-azaspiro[4.5]decan-6-yl)-1H-pyrazolo[4,3-c]pyridin-3-yl)-5-(trifluoromethyl)phenol], the IC50 is below 100 nM.
Next, `Cn1nc(-c2cc(C(F)(F)F)c(F)c(O)c2F)c2cnc(N3CCC(C(N)=O)CC34CC4)cc21` (stereo not drawn) [Compound 9.85, 4-(3-(2,4-Difluoro-3-hydroxy-5-(trifluoromethyl)phenyl)-1-methyl-1H-pyrazolo[4,3-c]pyridin-6-yl)-4-azaspiro[2.5]octane-7-carboxamide]: 100 to 1000 nM; `COC1(CN(C)c2cc3c(cn2)c(-c2cc(C(F)(F)F)c(F)c(O)c2F)nn3C)CCC1` [Compound 9.86, 2,6-Difluoro-3-(6-(((1-methoxycyclobutyl)methyl)(methyl)amino)-1-methyl-1H-pyrazolo[4,3-c]pyridin-3-yl)-5-(trifluoromethyl)phenol]: below 100 nM.
Next, `CC(=O)N1CCN(c2cc3c(cn2)c(-c2cc(C(F)(F)F)c(F)c(O)c2F)nn3C)C2(CC2)C1` [Compound 9.87, 1-(4-(3-(2,4-Difluoro-3-hydroxy-5-(trifluoromethyl)phenyl)-1-methyl-1H-pyrazolo[4,3-c]pyridin-6-yl)-4,7-diazaspiro[2.5]octan-7-yl)ethanone]: below 100 nM; `Cn1nc(-c2cc(C(F)(F)F)c(F)c(O)c2F)c2cnc(N3CCOC4(CCS(=O)(=O)CC4)C3)cc21` [Compound 9.88, 4-(3-(2,4-Difluoro-3-hydroxy-5-(trifluoromethyl)phenyl)-1-methyl-1H-pyrazolo[4,3-c]pyridin-6-yl)-1-oxa-9-thia-4-azaspiro[5.5]undecane 9,9-dioxide]: below 100 nM.
Next, `Cn1nc(-c2cc(C(F)(F)F)c(F)c(O)c2F)c2cnc(N3CCOC(C)(C#N)C3)cc21` (stereo not drawn) [Compound 9.89, 4-(3-(2,4-Difluoro-3-hydroxy-5-(trifluoromethyl)phenyl)-1-methyl-1H-pyrazolo[4,3-c]pyridin-6-yl)-2-methylmorpholine-2-carbonitrile]: below 100 nM.
As to `Cn1nc(-c2cc(C(F)(F)F)c(F)c(O)c2F)c2cnc(N3C[C@H]4CC[C@@H](C3)O4)cc21` [Compound 9.90, 3-(6-(cis-8-Oxa-3-azabicyclo[3.2.1]octan-3-yl)-1-methyl-1H-pyrazolo[4,3-c]pyridin-3-yl)-2,6-difluoro-5-(trifluoromethyl)phenol], the IC50 is below 100 nM.
Next, `Cn1nc(-c2cc(C(F)(F)F)c(F)c(O)c2F)c2cnc(N3CCN(c4ccccc4)C(=O)C3)cc21` [Compound 9.91, 4-(3-(2,4-Difluoro-3-hydroxy-5-(trifluoromethyl)phenyl)-1-methyl-1H-pyrazolo[4,3-c]pyridin-6-yl)-1-phenylpiperazin-2-one]: below 100 nM.
Next, `Cn1nc(-c2cc(C(F)(F)F)c(F)c(O)c2F)c2cnc(N3CCNC(=O)C3)cc21` [Compound 9.92, 4-(3-(2,4-Difluoro-3-hydroxy-5-(trifluoromethyl)phenyl)-1-methyl-1H-pyrazolo[4,3-c]pyridin-6-yl)piperazin-2-one]: 100 to 1000 nM.
Next, `COC12CC(CN(c3cc4c(cn3)c(-c3cc(C(F)(F)F)c(F)c(O)c3F)nn4C)C1)C2` [Compound 9.93, 2,6-Difluoro-3-(6-(1-methoxy-3-azabicyclo[3.1.1]heptan-3-yl)-1-methyl-1H-pyrazolo[4,3-c]pyridin-3-yl)-5-(trifluoromethyl)phenol]: below 100 nM; `Cn1nc(-c2cc(C(F)(F)F)c(F)c(O)c2F)c2cnc(NC3CCOCC3)cc21` [Compound 9.94, 2,6-Difluoro-3-(1-methyl-6-((tetrahydro-2H-pyran-4-yl)amino)-1H-pyrazolo[4,3-c]pyridin-3-yl)-5-(trifluoromethyl)phenol]: below 100 nM.
As for `CC1COC2(CCC2)CN1c1cc2c(cn1)c(-c1cc(C(F)(F)F)c(F)c(O)c1F)nn2C` (stereo not drawn) [Compound 9.95, 2,6-Difluoro-3-(1-methyl-6-(7-methyl-5-oxa-8-azaspiro[3.5]nonan-8-yl)-1H-pyrazolo[4,3-c]pyridin-3-yl)-5-(trifluoromethyl)phenol], the IC50 was below 100 nM.
Next, `CN1CCN(c2cc3c(cn2)c(-c2cc(C(F)(F)F)c(F)c(O)c2F)nn3C)C2(CCC2)C1` [Compound 9.96, 2,6-Difluoro-3-(1-methyl-6-(8-methyl-5,8-diazaspiro[3.5]nonan-5-yl)-1H-pyrazolo[4,3-c]pyridin-3-yl)-5-(trifluoromethyl)phenol]: below 100 nM; `Cn1nc(-c2cc(C(F)(F)F)c(F)c(O)c2F)c2cnc(N3CCOC(CO)C3)cc21` (stereo not drawn) [Compound 9.97, 2,6-Difluoro-3-(6-(2-(hydroxymethyl)morpholino)-1-methyl-1H-pyrazolo[4,3-c]pyridin-3-yl)-5-(trifluoromethyl)phenol]: 100 to 1000 nM.
Next, `COCC1(Nc2cc3c(cn2)c(-c2cc(C(F)(F)F)c(F)c(O)c2F)nn3C)CCC1` [Compound 9.98, 2,6-Difluoro-3-(6-((1-(methoxymethyl)cyclobutyl)amino)-1-methyl-1H-pyrazolo[4,3-c]pyridin-3-yl)-5-(trifluoromethyl)phenol]: below 100 nM.
